Our source for the Kd values is ChEMBL document CHEMBL3991601, “The target landscape of clinical kinase drugs” (Science, 2017).

A word on the Kd: it is the free concentration of one partner at which half of the binding sites on the other are occupied at equilibrium, for simple one-to-one binding.

Active and inactive are the calls of the source. Cut-off read from the data, not from the text of the source, for most assays here: actives have a measured Kd and inactives only a lower limit. Some results are limits rather than exact numbers.

Test [1] deals with T1, Mitogen-activated protein kinase 15 (Homo sapiens, UniProt Q8TD08).
T1 sequence (Q8TD08 whole entry): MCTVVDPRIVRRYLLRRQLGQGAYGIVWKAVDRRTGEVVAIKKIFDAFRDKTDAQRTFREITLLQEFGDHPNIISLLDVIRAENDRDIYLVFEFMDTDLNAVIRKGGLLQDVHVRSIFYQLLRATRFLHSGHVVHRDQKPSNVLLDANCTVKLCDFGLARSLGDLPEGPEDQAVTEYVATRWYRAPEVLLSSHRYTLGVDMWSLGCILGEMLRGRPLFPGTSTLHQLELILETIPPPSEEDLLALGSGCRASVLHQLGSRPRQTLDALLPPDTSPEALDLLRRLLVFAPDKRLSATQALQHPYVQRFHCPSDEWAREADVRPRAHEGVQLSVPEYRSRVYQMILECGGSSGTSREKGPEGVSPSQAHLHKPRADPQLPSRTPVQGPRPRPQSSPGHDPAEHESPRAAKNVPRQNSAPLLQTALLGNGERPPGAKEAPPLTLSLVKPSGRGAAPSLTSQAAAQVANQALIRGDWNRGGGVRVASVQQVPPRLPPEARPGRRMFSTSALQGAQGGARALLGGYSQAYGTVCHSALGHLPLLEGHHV

The target of test [2] is Atypical kinase COQ8A, mitochondrial (Homo sapiens, UniProt Q8NI60).
Chain of Atypical kinase COQ8A, mitochondrial (Q8NI60 whole entry): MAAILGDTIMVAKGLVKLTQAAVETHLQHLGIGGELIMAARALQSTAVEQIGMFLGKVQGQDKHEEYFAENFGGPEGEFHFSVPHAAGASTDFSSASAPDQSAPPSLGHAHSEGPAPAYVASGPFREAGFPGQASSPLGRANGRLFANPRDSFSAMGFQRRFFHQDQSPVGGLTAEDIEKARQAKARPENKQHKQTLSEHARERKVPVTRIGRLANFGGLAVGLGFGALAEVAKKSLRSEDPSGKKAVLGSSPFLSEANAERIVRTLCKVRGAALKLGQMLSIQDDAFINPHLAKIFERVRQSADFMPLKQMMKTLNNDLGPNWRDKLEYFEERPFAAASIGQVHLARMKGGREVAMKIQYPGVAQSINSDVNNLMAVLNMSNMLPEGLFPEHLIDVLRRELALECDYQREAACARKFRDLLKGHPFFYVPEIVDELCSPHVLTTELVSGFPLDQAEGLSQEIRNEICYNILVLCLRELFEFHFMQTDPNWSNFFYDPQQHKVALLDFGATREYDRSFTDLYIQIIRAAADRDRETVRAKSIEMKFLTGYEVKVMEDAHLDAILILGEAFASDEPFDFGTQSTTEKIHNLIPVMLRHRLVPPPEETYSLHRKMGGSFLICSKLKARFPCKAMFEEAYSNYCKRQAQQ
Test [3] has as its target Casein kinase II subunit alpha' (Homo sapiens, UniProt P19784).
Test [4] addresses Mitogen-activated protein kinase kinase kinase kinase 5 (Homo sapiens, UniProt Q9Y4K4).
Test [5] addresses Casein kinase I isoform epsilon (Homo sapiens, UniProt P49674).
The target of test [6] is Ephrin type-A receptor 4 (Homo sapiens, UniProt P54764).
Chain of Ephrin type-A receptor 4 (P54764 whole entry): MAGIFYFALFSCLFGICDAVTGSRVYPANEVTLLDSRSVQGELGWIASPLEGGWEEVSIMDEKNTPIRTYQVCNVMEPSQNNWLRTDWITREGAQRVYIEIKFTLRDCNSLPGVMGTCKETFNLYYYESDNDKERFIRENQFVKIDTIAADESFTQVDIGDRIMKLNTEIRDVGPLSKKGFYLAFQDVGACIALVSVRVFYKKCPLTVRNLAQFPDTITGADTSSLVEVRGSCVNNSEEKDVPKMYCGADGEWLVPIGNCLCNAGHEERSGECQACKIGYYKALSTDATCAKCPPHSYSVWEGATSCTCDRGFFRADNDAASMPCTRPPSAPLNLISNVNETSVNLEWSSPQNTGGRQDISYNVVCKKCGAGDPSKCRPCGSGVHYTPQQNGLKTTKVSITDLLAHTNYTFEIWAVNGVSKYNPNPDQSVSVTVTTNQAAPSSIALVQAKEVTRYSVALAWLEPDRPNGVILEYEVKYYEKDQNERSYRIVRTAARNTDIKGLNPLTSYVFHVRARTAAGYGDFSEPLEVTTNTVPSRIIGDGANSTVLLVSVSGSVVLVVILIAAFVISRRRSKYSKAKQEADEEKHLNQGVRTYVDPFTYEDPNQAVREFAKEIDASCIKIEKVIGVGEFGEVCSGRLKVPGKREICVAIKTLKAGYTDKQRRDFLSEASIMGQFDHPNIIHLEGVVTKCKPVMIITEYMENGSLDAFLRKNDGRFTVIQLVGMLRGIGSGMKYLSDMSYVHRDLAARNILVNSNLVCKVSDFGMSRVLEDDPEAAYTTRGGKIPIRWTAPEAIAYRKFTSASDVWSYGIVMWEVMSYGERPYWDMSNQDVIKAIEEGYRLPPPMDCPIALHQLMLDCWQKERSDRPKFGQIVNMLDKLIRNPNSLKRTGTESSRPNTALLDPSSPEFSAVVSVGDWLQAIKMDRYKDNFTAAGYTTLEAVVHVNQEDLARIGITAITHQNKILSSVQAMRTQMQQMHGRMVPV
Test [7] addresses T2, Peroxisomal acyl-coenzyme A oxidase 1 (Homo sapiens, UniProt Q15067).
T2 sequence (Q15067 whole entry): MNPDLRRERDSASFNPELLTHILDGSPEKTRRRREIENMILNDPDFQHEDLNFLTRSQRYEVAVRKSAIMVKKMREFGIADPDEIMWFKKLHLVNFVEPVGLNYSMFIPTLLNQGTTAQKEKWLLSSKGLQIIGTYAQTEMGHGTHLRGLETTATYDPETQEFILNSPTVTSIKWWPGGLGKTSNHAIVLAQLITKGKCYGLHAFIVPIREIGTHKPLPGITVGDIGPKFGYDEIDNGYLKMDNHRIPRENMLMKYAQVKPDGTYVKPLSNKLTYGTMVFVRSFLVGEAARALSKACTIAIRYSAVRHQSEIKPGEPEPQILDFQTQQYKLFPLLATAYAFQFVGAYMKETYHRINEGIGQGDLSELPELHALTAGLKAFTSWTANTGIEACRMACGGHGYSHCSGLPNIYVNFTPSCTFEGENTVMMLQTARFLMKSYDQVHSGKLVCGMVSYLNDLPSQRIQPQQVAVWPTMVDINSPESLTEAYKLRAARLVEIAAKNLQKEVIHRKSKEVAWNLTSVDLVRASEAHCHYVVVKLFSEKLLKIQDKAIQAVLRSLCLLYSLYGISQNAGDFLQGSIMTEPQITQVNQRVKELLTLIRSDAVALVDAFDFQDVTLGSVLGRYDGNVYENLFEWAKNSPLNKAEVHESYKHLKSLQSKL

For test [8], the target named is T3, Electron transfer flavoprotein subunit beta (Homo sapiens, UniProt P38117).
T3 sequence (P38117 whole entry): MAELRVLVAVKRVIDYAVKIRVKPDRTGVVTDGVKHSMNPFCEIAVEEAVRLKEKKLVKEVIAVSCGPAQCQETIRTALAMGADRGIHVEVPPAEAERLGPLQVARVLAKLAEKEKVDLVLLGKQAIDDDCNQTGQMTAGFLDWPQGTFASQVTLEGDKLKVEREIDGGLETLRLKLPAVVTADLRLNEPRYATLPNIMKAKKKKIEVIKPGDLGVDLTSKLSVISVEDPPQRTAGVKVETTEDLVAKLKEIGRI

In test [9] the target is T4, Bone morphogenetic protein receptor type-2 (Homo sapiens, UniProt Q13873).
T4 sequence (Q13873 whole entry): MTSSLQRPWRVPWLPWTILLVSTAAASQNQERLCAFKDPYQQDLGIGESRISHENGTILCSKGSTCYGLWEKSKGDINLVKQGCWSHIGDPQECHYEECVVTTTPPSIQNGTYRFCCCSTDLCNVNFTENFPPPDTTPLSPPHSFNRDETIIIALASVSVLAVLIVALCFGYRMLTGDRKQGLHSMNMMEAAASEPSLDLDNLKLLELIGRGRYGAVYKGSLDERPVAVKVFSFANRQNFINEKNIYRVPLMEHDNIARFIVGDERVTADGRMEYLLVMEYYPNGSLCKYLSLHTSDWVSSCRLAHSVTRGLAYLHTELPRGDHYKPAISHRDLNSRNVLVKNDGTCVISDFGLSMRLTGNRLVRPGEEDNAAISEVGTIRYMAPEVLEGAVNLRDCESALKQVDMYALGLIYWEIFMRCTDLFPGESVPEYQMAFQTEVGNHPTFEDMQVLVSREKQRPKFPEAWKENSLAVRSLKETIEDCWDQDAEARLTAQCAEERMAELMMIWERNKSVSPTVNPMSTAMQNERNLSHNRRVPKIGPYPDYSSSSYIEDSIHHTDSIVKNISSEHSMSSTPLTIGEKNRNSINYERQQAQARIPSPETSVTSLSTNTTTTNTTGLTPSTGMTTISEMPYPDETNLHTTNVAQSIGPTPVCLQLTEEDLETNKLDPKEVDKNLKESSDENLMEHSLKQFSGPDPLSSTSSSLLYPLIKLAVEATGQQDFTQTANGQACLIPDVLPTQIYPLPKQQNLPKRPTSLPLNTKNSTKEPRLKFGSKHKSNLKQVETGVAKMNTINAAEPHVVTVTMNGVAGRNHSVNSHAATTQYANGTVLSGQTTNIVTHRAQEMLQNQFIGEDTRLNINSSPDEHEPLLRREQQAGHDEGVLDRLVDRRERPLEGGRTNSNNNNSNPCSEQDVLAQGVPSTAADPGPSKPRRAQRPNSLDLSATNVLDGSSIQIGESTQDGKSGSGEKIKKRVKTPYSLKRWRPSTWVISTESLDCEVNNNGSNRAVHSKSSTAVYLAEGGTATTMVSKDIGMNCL
Note: in the data inactive means no Kd found up to 30 µM.

Chain of Mitogen-activated protein kinase kinase kinase kinase 5 (Q9Y4K4 whole entry, canonical isoform): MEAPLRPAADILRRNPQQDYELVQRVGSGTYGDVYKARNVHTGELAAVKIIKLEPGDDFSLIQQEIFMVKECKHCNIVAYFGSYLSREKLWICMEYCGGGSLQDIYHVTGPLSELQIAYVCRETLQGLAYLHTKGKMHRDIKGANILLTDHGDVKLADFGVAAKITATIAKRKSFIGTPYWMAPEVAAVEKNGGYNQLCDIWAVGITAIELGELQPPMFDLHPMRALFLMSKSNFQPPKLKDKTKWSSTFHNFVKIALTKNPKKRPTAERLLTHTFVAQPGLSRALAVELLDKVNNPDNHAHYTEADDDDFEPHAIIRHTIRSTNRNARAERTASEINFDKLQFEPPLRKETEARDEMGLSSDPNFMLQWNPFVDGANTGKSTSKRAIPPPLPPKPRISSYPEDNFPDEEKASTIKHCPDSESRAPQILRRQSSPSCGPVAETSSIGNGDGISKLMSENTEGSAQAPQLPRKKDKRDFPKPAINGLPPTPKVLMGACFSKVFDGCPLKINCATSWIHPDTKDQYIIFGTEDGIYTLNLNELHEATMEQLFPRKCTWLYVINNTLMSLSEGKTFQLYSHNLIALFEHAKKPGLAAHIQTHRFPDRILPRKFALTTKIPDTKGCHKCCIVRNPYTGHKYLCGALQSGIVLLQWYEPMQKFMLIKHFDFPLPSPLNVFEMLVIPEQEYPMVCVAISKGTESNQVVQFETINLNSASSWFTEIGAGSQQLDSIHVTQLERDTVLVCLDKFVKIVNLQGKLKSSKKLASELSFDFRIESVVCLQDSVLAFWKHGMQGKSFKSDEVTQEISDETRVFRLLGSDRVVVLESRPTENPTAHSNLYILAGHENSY
Chain of Casein kinase II subunit alpha' (P19784 whole entry): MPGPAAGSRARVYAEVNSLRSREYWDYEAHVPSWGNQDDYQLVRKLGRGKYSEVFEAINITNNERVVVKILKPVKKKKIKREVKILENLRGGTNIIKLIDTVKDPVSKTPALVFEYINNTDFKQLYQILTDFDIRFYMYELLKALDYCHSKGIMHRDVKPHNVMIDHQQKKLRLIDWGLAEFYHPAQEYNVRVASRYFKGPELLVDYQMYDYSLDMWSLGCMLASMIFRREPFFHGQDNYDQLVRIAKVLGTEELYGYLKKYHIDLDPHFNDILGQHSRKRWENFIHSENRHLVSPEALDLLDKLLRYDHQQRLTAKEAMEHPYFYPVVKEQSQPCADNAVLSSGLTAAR
Chain of Casein kinase I isoform epsilon (P49674 whole entry, canonical isoform): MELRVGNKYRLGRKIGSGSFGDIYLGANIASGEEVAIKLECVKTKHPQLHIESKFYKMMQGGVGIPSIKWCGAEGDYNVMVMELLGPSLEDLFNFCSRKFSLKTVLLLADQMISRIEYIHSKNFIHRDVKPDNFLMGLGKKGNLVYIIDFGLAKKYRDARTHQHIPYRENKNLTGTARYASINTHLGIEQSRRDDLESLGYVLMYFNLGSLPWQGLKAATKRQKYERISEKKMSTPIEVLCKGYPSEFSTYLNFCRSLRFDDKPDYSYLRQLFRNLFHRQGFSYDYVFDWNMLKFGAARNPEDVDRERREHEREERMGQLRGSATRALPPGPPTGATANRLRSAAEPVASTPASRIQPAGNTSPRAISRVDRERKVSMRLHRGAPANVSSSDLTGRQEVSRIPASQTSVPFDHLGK

For the molecule `Cc1c(NC(=O)OC[C@@H]2COCCN2)cn2ncnc(Nc3ccc4c(cnn4Cc4cccc(F)c4)c3)c12` [AC-480], the Kd in [1], in [2], in [3], in test [4], in test [5] and in [6] was > 30 µM (inactive) throughout. For the same molecule, the Kd in [7], in [8] and in test [9] was > 30 µM (inactive) each time.
Regarding `COc1cc(Nc2ncc(F)c(Nc3ccc4c(n3)N(COP(=O)(O)O)C(=O)C(C)(C)O4)n2)cc(OC)c1OC` [FOSTAMATINIB], the Kd in test [1], in test [2], in test [3], in [4], in test [5] and in test [6] was > 30 µM (inactive) each time. Further, the Kd in test [7], in [8] and in test [9] was > 30 µM (inactive) each time.
Take `CC(C)CC(=O)Nc1[nH]nc2c1CN(C(=O)C1CCN(C)CC1)C2(C)C` [PHA-793887]: the Kd was 0.264 µM (active) in test [1]; > 30 µM (inactive) in test [2]; > 30 µM (inactive) in test [3]; > 30 µM (inactive) in [4]; > 30 µM (inactive) in test [5]; > 30 µM (inactive) in test [6]. Further, the Kd in test [7], in test [8] and in test [9] was > 30 µM (inactive) in each case.
In the case of `COc1cccc2cc(-c3nc([C@H]4CC[C@H](C(=O)O)CC4)n4ncnc(N)c34)[nH]c12` [OSI-027], the Kd in [1] was > 30 µM (inactive); in [2], > 30 µM (inactive); in [3], 1.6 µM (active); in test [4] it was > 30 µM (inactive); in test [5], > 30 µM (inactive); in [6], > 30 µM (inactive). The Kd in [7] was > 30 µM (inactive); in [8], > 30 µM (inactive); in test [9], 2.1 µM.
For the molecule `C[C@]1(O)C[C@@H](c2nc(-c3ccc4ccc(-c5ccccc5)nc4c3)c3c(N)nccn32)C1` [LINSITINIB], the Kd in [1] is > 30 µM (inactive); in test [2], > 30 µM (inactive); in [3], > 30 µM (inactive); in [4], 0.614 µM (active); in [5], > 30 µM (inactive); in test [6], > 30 µM (inactive). The Kd in [7], in test [8] and in test [9] was > 30 µM (inactive) each time.
As to `COc1ccc2c(OCc3nnc4ccc(-c5ccccc5)nn34)ccnc2c1` [AMG-208], the Kd in [1], in test [2], in test [3], in test [4], in test [5] and in [6] was > 30 µM (inactive) throughout. Further, the Kd in test [7], in [8] and in [9] was > 30 µM (inactive) in each case.
As to `COc1cc2ncnc(Nc3ccc(F)c(Cl)c3)c2cc1NC(=O)/C=C/CN1CCCCC1` [DACOMITINIB ANHYDROUS], the Kd in [1], in test [2], in test [3], in [4], in [5] and in test [6] was > 30 µM (inactive) throughout. The Kd in test [7], in test [8] and in test [9] was > 30 µM (inactive) each time.
In the case of `CC[C@@](C)(Nc1ccnc(-c2c[nH]c3ncccc23)n1)C(=O)NCC(F)(F)F` [DECERNOTINIB], the Kd in test [1] is > 30 µM (inactive); in [2], > 30 µM (inactive); in test [3] it was 3.23 µM (active); in test [4], > 30 µM (inactive); in test [5], > 30 µM (inactive); in test [6] it was > 30 µM (inactive). The Kd in test [7], in test [8] and in test [9] was > 30 µM (inactive) each time.
For the molecule `O=C(NOC[C@H](O)CO)c1ccc(F)c(F)c1Nc1ccc(I)cc1F` [MIRDAMETINIB], the Kd in [1], in [2], in test [3], in test [4], in test [5] and in test [6] was > 30 µM (inactive) each time. The Kd in test [7], in test [8] and in [9] was > 30 µM (inactive) in each case.
`COc1cc2nccc(Oc3ccc(NC(=O)C4(C(=O)Nc5ccc(F)cc5)CC4)cc3)c2cc1OC` [CABOZANTINIB]: the Kd in [1], in [2], in test [3], in [4], in [5] and in test [6] was > 30 µM (inactive) each time. The Kd in [7], in test [8] and in [9] was > 30 µM (inactive) in each case.
For `NC[C@@](O)(c1ccc(Cl)cc1)c1ccc(-c2cn[nH]c2)cc1` [AT-13148], the Kd in [1], in test [2], in test [3], in [4], in test [5] and in test [6] was > 30 µM (inactive) in each case. For the same molecule, the Kd in test [7], in test [8] and in [9] was > 30 µM (inactive) each time.
